Literature values in patent US12011508B2, “Methods and devices for reducing vascular smooth muscle cell proliferation” (Board of Supervisors of Louisiana State University and …, priority 2018, dated 2024).

water solubility: practically insoluble in water
Compound: O=c1c(O)c(-c2ccc(O)c(O)c2)oc2cc(O)cc(O)c12 [QUER, 2-(3,4-dihydroxyphenyl)-3,5,7-trihydroxy-4H-1-benzopyran-4-one]
